From patent US20170183306A1, “CYCLIC COMPOUNDS HAVING A 1,3 DIAMINO-FUNCTIONALITY FOR USE IN THE TREATMENT OF HIV INFECTION” (Universite Paris Descartes, priority 2014, published 2017)
Where two headings read alike, the source gives them in different places.

Columns and labels:
J-Lat cells = experiment: J-Lat cells, percentage of GFP-positive cells by cytometry; type: cell-based; settings: 50 μM; 24 h, compound alone
Summary of the method: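 J-Lat cells (5.105 per well, RPMI/10% FBS) treated 24 h with compound alone at 37 °C. After PFA fixation, GFP-positive cells counted by flow cytometry and reported as percentage of living fluorescent cells.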

[1] = tested on: wild type NL4-3 virus (HIV-1) in HeLa-p4 cells; experiment: HeLa-p4 single-cycle HIV-1 infectivity, beta-galactosidase CPRG test; type: cell-based; settings: Human immunodeficiency virus 1, NL43, HeLaP4, 48 hours after infection, control = NL4-3 virus alone; for activity at 50 µM: read-out: Hela-p4 CPRG 50 μM; for activity at 100 µM: read-out: Hela-p4 CPRG 100 μM
Summary of the method: (§1)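 HeLa CD4 LTR-LacZ cells infected with 1 ng p24 of wild-type NL4-3 alongside graded compound concentrations; β-galactosidase measured 48 h post-infection by CPRG colorimetry, expressed as percent of untreated virus control. Viability assessed by MTS absorbance at […].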

HeLa-p4 cells = experiment: Cell viability assay (MTS) on HeLa-p4 cells; type: cell-based; settings: cell viability
Summary of the method: as §1

[2] = tested on: HIV in T CD4+ cells from HIV-infected patients; experiment: HIV production by CD4+ T cells of HIV-infected, antiretroviral-treated, aviremic patients (real time PCR); type: cell-based, HIV-1; settings: one line per patient; for Compound: ratio of the viral load of interest/viral load of negative control: compound alone
From the text: For experiments using primary cells obtained from HIV-infected, antiretroviral-treated, aviremic patients, total CD4+ cells are isolated by a MACS) Whole Blood MicroBead Technology (Miltenyi). Briefly, T CD4+ cells from whole blood are magnetically labeled with MACS MicroBeads and specific antibodies. Cells are separated in a MACS Column placed in a MACS Separator. The flow-through fraction can be collected as the negative fraction depleted of the labeled cells. The column is removed from the separator and the retained cells are eluted as the enriched, positively selected cell fraction. The T CD4+ cells were then cultured with a T cell activation/expansion kit (Miltenyi). The cells are activated for up to 3 days with Anti-Biotin MACSiBead Particle conjugated to monoclonal anti-biotin antibodies (anti CD2-biotin, […] and anti CD28-biotin). Expansion is achieved by adding IL-2 and fresh medium for 4 days. Then, these T CD4+ cells are considered as positive culture. A negative control was the same proportion of cells cultured without stimuli like antibodies and IL-2. The T CD4+ cells were cultured with compounds alone or in combination with antibodies or IL-2. The HIV production in cell culture media was measured by real time PCR (Cobas AmpliPrep/Cobas Taqman HIV-1 test, V2.0, Roche). The results are expressed in table 2 as a ratio of the viral load of interest/viral load of negative control or as a ratio of the viral load of interest/viral load of positive control.

[3] = cited from earlier work
HIV = settings: cited from earlier work

Compound	J-lat 50 μM (J-Lat cells)	activity at 50 µM [1] [%]	activity at 100 µM [1] [%]	activity at 200 µM [1] [%]	Hela-p4 MTS 50 μM (HeLa-p4 cells)	Hela-p4 MTS 100 μM (HeLa-p4 cells)	Hela-p4 MTS 200 μM (HeLa-p4 cells)	Compound: ratio of the viral load of interest/viral load of negative control [2]	other results
N[C@@H]1CNC[C@H](N)C1 [ECO01-025-C2, piperidine-3,5-diamine]	0.7 percentage of the living fluorescent cells	166	280	317	104	79	70	1	
O=C(CCCCCCC(=O)Nc1ccccc1)NO [vorinostat]									adverse effects in clinical trials ([3]; first results of on-going clinical trials): important adverse effects
CCN(CC)C(=S)SSC(=S)N(CC)CC [Disulfirame]									capacity to induce HIV replication in clinical trial (HIV): low capacity to induce HIV replication
CC(C)(C)OC(=O)N[C@@H]1CNC[C@H](NC(=O)OC(C)(C)C)C1 [ECO02-051-C]	1.1 percentage of the living fluorescent cells	124	200	397	95	96	77	1	Compound + IL2: ratio of the viral load of interest/viral load of negative control ([2]; compound in combination with IL2): 1
C/C=C1\NC(=O)[C@H]2CSSCC/C=C/[C@H](CC(=O)N[C@H](C(C)C)C(=O)N2)OC(=O)[C@H](C(C)C)NC1=O [Romidepsin]									adverse effects in clinical trials ([3]; in vivo): important adverse effects
